Where “and” joins values, the source holds several entries; their conditions need not be identical. Identical values can stand only once.
What was measured:
Format in all cases: functional, Homo sapiens
K562 [1] = assay: Cytotoxic activity on K-562 erythroleukemia cell line suspension in 5% foetal calf serum (FCS) at 10e-4 M concentration after 2 hr
K562 [2] = assay: Cytotoxic activity on K-562 erythroleukemia cell line suspension in 5% foetal calf serum (FCS) at 10e-3 M concentration after 2 hr
K562 [3] = assay: Cytotoxic activity on K-562 erythroleukemia cell line suspension in 5% foetal calf serum (FCS) at 4*10e-5 M concentration after 24 hr
K562 [4] = assay: Cytotoxic activity on K-562 erythroleukemia cell line suspension in 5% foetal calf serum (FCS) at 10e-4 M concentration after 1 hr
K562 [5] = assay: Cytotoxic activity on K-562 erythroleukemia cell line suspension in 5% foetal calf serum (FCS) at 10e-5 M concentration after 2 hr
K562 [6] = assay: Cytotoxic activity on K-562 erythroleukemia cell line suspension in 5% foetal calf serum (FCS) at 4*10e-6 M concentration after 2 hr
K562 [7] = assay: Cytotoxic activity on K-562 erythroleukemia cell line suspension in 5% foetal calf serum (FCS) at 10e-4 M concentration after 24 hr
K562 [8] = assay: Cytotoxic activity on K-562 erythroleukemia cell line suspension in 5% foetal calf serum (FCS) at 10e-6 M concentration after 24 hr
K562 [9] = assay: Cytotoxic activity on K-562 erythroleukemia cell line suspension in 5% foetal calf serum (FCS) at 4*10e-4 M concentration after 1 hr
K562 [10] = assay: Cytotoxic activity on K-562 erythroleukemia cell line suspension in 5% foetal calf serum (FCS) at 10e-5 M concentration after 24 hr
K562 [11] = assay: Cytotoxic activity on K-562 erythroleukemia cell line suspension in 5% foetal calf serum (FCS) at 10e-6 M concentration after 2 hr
K562 [12] = assay: Cytotoxic activity on K-562 erythroleukemia cell line suspension in 5% foetal calf serum (FCS) at 4*10e-5 M concentration after 1 hr
K562 [13] = assay: Cytotoxic activity on K-562 erythroleukemia cell line suspension in 5% foetal calf serum (FCS) at 10e-3 M concentration after 1 hr
K562 [14] = assay: Cytotoxic activity on K-562 erythroleukemia cell line suspension in 5% foetal calf serum (FCS) at 4*10e-4 M concentration after 24 hr
K562 [15] = assay: Cytotoxic activity on K-562 erythroleukemia cell line suspension in 5% foetal calf serum (FCS) at 10e-5 M concentration after 1 hr
K562 [16] = assay: Cytotoxic activity on K-562 erythroleukemia cell line suspension in 5% foetal calf serum (FCS) at 4*10e-5 M concentration after 2 hr
K562 [17] = assay: Cytotoxic activity on K-562 erythroleukemia cell line suspension in 5% foetal calf serum (FCS) at 4*10e-6 M concentration after 1 hr
K562 [18] = assay: Cytotoxic activity on K-562 erythroleukemia cell line suspension in 5% foetal calf serum (FCS) at 4*10e-6 M concentration after 24 hr
K562 [19] = assay: Cytotoxic activity on K-562 erythroleukemia cell line suspension in 5% foetal calf serum (FCS) at 10e-6 M concentration after 1 hr
K562 [20] = assay: Cytotoxic activity on K-562 erythroleukemia cell line suspension in 5% foetal calf serum (FCS) at 10e-3 M concentration after 24 hr

`CCCCCCCCCCCCCCCCCCSP(O)(=S)O[C@@H]1[C@@H](O)[C@H](O)[C@@H](O)[C@H](O)[C@@H]1O` (stereo not given in full) gave a Dead cells (K562 [1]) of 22.7%, a Dead cells (K562 [2]) of 52.52% and a Dead cells (K562 [3]) of 24.4%. For the same compound, the Dead cells (K562 [4]) was 18.4%, the Dead cells (K562 [5]) was 16.6% and the Dead cells (K562 [6]) was 16.8% and 45.9%. For the same compound, the Dead cells (K562 [7]) was 40%, the Dead cells (K562 [8]) was 27.2% and the Dead cells (K562 [9]) was 48.2%. For the same compound, the Dead cells (K562 [10]) was 23.3%, the Dead cells (K562 [11]) was 18.2% and the Dead cells (K562 [12]) was 15.5%. For the same compound, the Dead cells (K562 [13]) was 48.9%, the Dead cells (K562 [14]) was 71.1% and the Dead cells (K562 [15]) was 13.3%. For the same compound, the Dead cells (K562 [16]) was 17%, the Dead cells (K562 [17]) was 13.3% and the Dead cells (K562 [18]) was 22.5%. It also gave a Dead cells (K562 [19]) of 14% and a Dead cells (K562 [20]) of 96.2%.

From ChEMBL document CHEMBL1127106, “Synthesis and cytotoxic activity of () octadecylphosphodithionyl-1-myo-inositol” (1993)
